Measurements from PubChem BioAssay (NCI).
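GI50 is the concentration that inhibits growth by half. TGI denotes the concentration required for complete inhibition of growth.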

Experiments:
Assay in all cases: NCI-60 cell line screen, 384-well format
[1] = tested on: 786-0 renal
[2] = tested on: A549 NSCLC
[3] = tested on: BT-549 breast
[4] = tested on: CAKI-1 renal
[5] = tested on: COLO 205 colon
[6] = tested on: DU-145 prostate
[7] = tested on: EKVX NSCLC
[8] = tested on: HCT-116 colon
[9] = tested on: HCT-15 colon
[10] = tested on: HL-60(TB) leukemia
[11] = tested on: HOP-62 NSCLC
[12] = tested on: HOP-92 NSCLC
[13] = tested on: HS 578T breast
[14] = tested on: HT29 colon
[15] = tested on: IGROV1 ovarian
[16] = tested on: KM12 colon
[17] = tested on: LOX IMVI melanoma
[18] = tested on: MCF7 breast
[19] = tested on: MDA-MB-231 breast
[20] = tested on: MDA-MB-435 melanoma
[21] = tested on: NCI-H226 lung
[22] = tested on: NCI-H23 lung
[23] = tested on: NCI-H460 NSCLC
[24] = tested on: NCI-H522 lung
[25] = tested on: NCI/ADR-RES ovarian
[26] = tested on: OVCAR-3 ovarian
[27] = tested on: OVCAR-4 ovarian
[28] = tested on: OVCAR-5 ovarian
[29] = tested on: OVCAR-8 ovarian
[30] = tested on: PC-3 prostate
[31] = tested on: RPMI-8226 leukemia
[32] = tested on: RXF 393 renal
[33] = tested on: SF-268 CNS
[34] = tested on: SF-295 CNS
[35] = tested on: SK-MEL-5 melanoma
[36] = tested on: SK-OV-3 ovarian
[37] = tested on: SN12C renal
[38] = tested on: SNB-19 CNS
[39] = tested on: SNB-75 CNS
[40] = tested on: SR leukemia
[41] = tested on: SW-620 colon
[42] = tested on: T-47D breast
[43] = tested on: TK-10 renal
[44] = tested on: U251 glioblastoma
[45] = tested on: UACC-257 melanoma
[46] = tested on: UACC-62 melanoma
[47] = tested on: UO-31 renal

SMILES: CCN(CC)CCNC(=O)c1c(C)[nH]c(/C=C2\C(=O)Nc3ccc(F)cc32)c1C
- GI50 [1]: 1.62 µM
- TGI [1]: 3.11 µM
- GI50 [2]: 2.58 µM
- TGI [2]: 6.97 µM
- GI50 [3]: 1.58 µM
- TGI [3]: 2.98 µM
- GI50 [4]: 0.748 µM
- TGI [4]: 2.06 µM
- GI50 [5]: 3.18 µM
- TGI [5]: 7.89 µM
- GI50 [6]: 2.54 µM
- TGI [6]: 11.9 µM
- GI50 [7]: 3.12 µM
- TGI [7]: 9.47 µM
- GI50 [8]: 1.28 µM
- TGI [8]: 2.62 µM
- GI50 [9]: 1.19 µM
- TGI [9]: 3.6 µM
- GI50 [10]: 0.892 µM
- TGI [10]: 2.13 µM
- GI50 [11]: 2.78 µM
- TGI [11]: 8.28 µM
- GI50 [12]: 1.62 µM
- TGI [12]: 4.86 µM
- GI50 [13]: 1.86 µM
- TGI [13]: 3.73 µM
- GI50 [14]: 1.48 µM
- TGI [14]: 2.85 µM
- GI50 [15]: 1.14 µM
- TGI [15]: 5.97 µM
- GI50 [16]: 0.0426 µM
- TGI [16]: 4.7 µM
- GI50 [17]: 1.39 µM
- TGI [17]: 2.71 µM
- GI50 [18]: 1.36 µM
- TGI [18]: 3.8 µM
- GI50 [19]: 2.22 µM
- TGI [19]: 5.5 µM
- GI50 [20]: 2.45 µM
- TGI [20]: 6.53 µM
- GI50 [21]: 1.61 µM
- TGI [21]: 4.48 µM
- GI50 [22]: 1.91 µM
- TGI [22]: 4.64 µM
- GI50 [23]: 1.79 µM
- TGI [23]: 5.73 µM
- GI50 [24]: 2.22 µM
- TGI [24]: 6.49 µM
- GI50 [25]: 2.56 µM
- TGI [25]: 6.16 µM
- GI50 [26]: 1.78 µM
- TGI [26]: 3.31 µM
- GI50 [27]: 3.93 µM
- TGI [27]: 8.44 µM
- GI50 [28]: 2.67 µM
- TGI [28]: 11.2 µM
- GI50 [29]: 2.35 µM
- TGI [29]: 6.18 µM
- GI50 [30]: 2.27 µM
- TGI [30]: 7.54 µM
- GI50 [31]: 1.38 µM
- TGI [31]: 2.78 µM
- GI50 [32]: 1.88 µM
- TGI [32]: 3.53 µM
- GI50 [33]: 4.23 µM
- TGI [33]: 13.1 µM
- GI50 [34]: 5.25 µM
- TGI [34]: 9.62 µM
- GI50 [35]: 1.24 µM
- TGI [35]: 2.5 µM
- GI50 [36]: 1.04 µM
- TGI [36]: 5.7 µM
- GI50 [37]: 0.931 µM
- TGI [37]: 10.4 µM
- GI50 [38]: 6.08 µM
- TGI [38]: 13.7 µM
- GI50 [39]: 3.67 µM
- TGI [39]: 8.24 µM
- GI50 [40]: 1.81 µM
- TGI [40]: 3.24 µM
- GI50 [41]: 1.7 µM
- TGI [41]: 4.29 µM
- GI50 [42]: 4.24 µM
- TGI [42]: 8.33 µM
- GI50 [43]: 3.11 µM
- TGI [43]: 8.02 µM
- GI50 [44]: 2.09 µM
- TGI [44]: 5.09 µM
- GI50 [45]: 1.71 µM
- TGI [45]: 3.1 µM
- GI50 [46]: 1.8 µM
- TGI [46]: 4.46 µM
- GI50 [47]: 2.17 µM
- TGI [47]: 6.36 µM
